Measured values taken from article PMC11167521, “Inhibition of neuraminidase-1 sialidase activity by interfering peptides impairs insulin receptor activity in vitro and glucose homeostasis in vivo” (The Journal of Biological Chemistry, 2024).
No end group written: not given here.

Tests used:
[1] = biological target: T1, membrane NEU-1 in HepG2 cells (Homo sapiens, UniProt Q99519); experiment: Colocalization of fluorescent peptide with NEU-1 by confocal microscopy; assay type: cell-based; details: fixed HepG2 cells, 0.1 μM in LDS micelles, 1 h, n = 3
T1 construct: HepG2 endogenously expresses IR and NEU-1; endogenous in cells; host or cells: HepG2 (ATCC HB-8065)
Description: IntPeps coupled with FITC and solubilized in LDS micelles have been incubated at 0.1 μM for 1 h with fixed HepG2 cells.
HepG2 cells were seeded onto coverslips in 24-well plates at 50,000 cells/well. After 24 h, cells were fixed with paraformaldehyde 1% (Euromedex) for 5 min followed by a second incubation with paraformaldehyde 2% for 10 min at room temperature (RT). Cells were washed twice for 5 min with PBS and permeabilized with Triton 0.2% during 5 min at RT. A total of 3% bovine serum albumin (BSA) was disposed in each well for 1 h at RT after three washes with PBS for 5 min. Cells were then incubated with NEU-1 mouse monoclonal antibody (1/200 in PBS with 3% BSA) (Santa Cruz Biotechnology) for 2 h at RT. Then, this solution was removed, and the cells were incubated with anti-mouse secondary antibody coupled with Alexa Fluor 568 (1/1000 in PBS with 3% BSA) (Invitrogen) for 2 h at RT in the dark. After washes, cells were incubated with IntPeps coupled with FITC (0.1 μM) or with FITC alone (0.1 μM) at RT in the dark. Coverslips were then mounted in a medium containing 4′,6-diamidino-2-phenylindole (Prolong gold, antifade, Invitrogen). Slides were finally observed using confocal microscopy (Zeiss LSM 710) and featured slices were analyzed with Image J software (https://imagej.net/ij/download.html).

HepG2 cells = experiment: MTT cell viability assay, HepG2 cells; assay type: cell-based, human; details: peptide 0.1 μM in LDS micelles, 3 h and 24 h, compared to control without treatment, n = 3-4
Description: (§1) The concentration of 0.1 μM and two incubation times, 3 h (Fig. S1, A and C) and 24 h (Fig. S1, B and D) have been tested. […] The choice of this concentration was based on the previous study by Albrecht et al. ([31]).
(§2) HepG2 cell line and COS-7^IR cells were, respectively, harvested in 96-well plates at a cell density of 80,000 cells/well and 10,000 cells/well. After 24 h, cells were incubated with IntPep-RKR or mutIntPep-RKR at 0.1 μM or only with LDS micelles during 3 h or 24 h. Then, the medium has been removed and cells were incubated in the dark during 4 h at 37 °C with a 3-(4-5-dimethylthiazol-2-yl) -2,5-diphenyltetrazolium bromide solution (MTT, Sigma, 5 mg/ml) diluted in PBS (one-sixth v/v). The medium was removed, and 100 μl of dimethyl sulfoxide were added in each well. Cell viability was measured at 570 nm with Infinite F200 Pro (TECAN) hardware using Magellan software (https://lifesciences.tecan.com/software-magellan?p=tab--2).
(§3) HepG2 cells (A,B) and COS-7 cells
(§4) overexpressing IR (C,D) were incubated with mutIntPep-RKR, IntPep-RKR (0.1 µm) or LDS
(§5) micelles for 3h (A,C) or for 24h (B,D).
(§6) ZS equipment (Malvern Panalytical, UK). Water was used as a reference dispersing medium.
(§7) Micelles sizes were expressed in volume (as the diameter of a theorical sphere in nanometer),

membrane NEU-1 [2] = biological target: T2, membrane NEU-1 (Homo sapiens, UniProt Q99519); experiment: Membrane NEU-1 sialidase activity, COS-7^IR/NEU-1 crude membranes (Muf-NANA); assay type: biochemical; parameters: host or cells: COS-7 (ATCC CRL-1651) or COS-7^IR, transient transfection, 72 h; details: COS-7^IR/NEU-1 crude membrane, 0.1 μM, 15 min, compared to mutIntPep-RKR, n = 4-5, mean ± SEM
Excerpt: (§8) Plasmid encoding human IR was a gift from Dr Tarik Issad (Institut Cochin, Paris, France) and plasmid encoding human PPCA protein was provided by Pr. Alessandra d’Azzo (St Jude Children's Research Hospital, Memphis, USA). These two plasmids have been previously described ([50], [51]). Plasmid encoding human NEU-1 was purchased from ImaGenes GmbH. For cell transfections, JetPEI DNA transfection reagent was purchased from Polyplus transfection. […] HepG2 cells were harvested in 1 g/L glucose Dulbecco’s modified Eagle’s medium supplemented with 10% heat inactivated fetal bovine serum, 100 units/ml penicillin, 0,1 mg/ml streptomycin at 37 °C in a humidified atmosphere at 5% CO2. COS-7 cells were maintained in culture in 4.5 g/L glucose Dulbecco’s modified Eagle’s medium supplemented with 10% heat-inactivated fetal bovine serum, 100 units/ml penicillin, 0.1 mg/ml streptomycin at 37 °C in a humidified atmosphere at 5% CO2. COS-7 cells have been stably transfected with plasmid encoding human IR. Geneticin selection (400 μg/ml) has been made after transfection to obtain a stable cell line overexpressing IR named COS-7^IR. Geneticin (80 μg/ml) were added in the completed medium to maintain this cell line. […]

[3] = test system: COS-7 cells overexpressing IR (COS-7^IR); experiment: MTT cell viability assay, COS-7 cells overexpressing IR; assay type: cell-based, African green monkey; details: peptide 0.1 μM in LDS micelles, 3 h and 24 h, compared to control without treatment, n = 3-4
Description: as §1, §2, §3, §4, §5, §6, §7

membrane NEU-1 [4] = biological target: T2, membrane NEU-1; experiment: Membrane NEU-1 sialidase activity, HepG2 crude membranes (Muf-NANA); assay type: biochemical; details: 0.1 μM, 15 min incubation, compared to mutIntPep-RKR at same concentration, n = 4-5, mean ± SEM
Description: HepG2 cells grown in 75 cm^2 flasks and COS-7 cell lines grown in 10 cm Petri dishes were washed twice with cold PBS and resuspended with 1 ml cold TEM buffer extemporaneously completed with 1% (v/v) protease inhibitor cocktail, 10 mM NaF, 2 mM Na3VO4. After sonication, samples were centrifuged at 600g for 10 min at 4 °C to remove nonlysed cells and nuclei. Supernatants were extracted and centrifuged at 20,000g for 45 min at 4 °C. Crude membrane-containing pellets were then resuspended in 400 μl Mes buffer (2-(N-morpholino) ethanesulfonic acid hydrate, 20 mM, pH 4.5). Protein concentration was then determined by bicinchoninic acid assay to measure sialidase activity from 50 μg of crude membrane proteins. Samples were incubated with peptides for 15 min on ice. Muf-NANA (2′-(4-MethylUmbelliFeryl)-alpha-D-N-AcetylNeuraminic Acid) (Biosynth) at a concentration of 400 μM was then added and incubated with samples for 2 h at 37 °C in the dark. The reaction was then stopped by adding Na2CO3 (Merck). A total of 150 μl of each sample were finally transferred in black 96 well plates. Emitted fluorescence was measured with Infinite F200 Pro (TECAN) hardware and Magellan software (excitation: 360 nm/emission: 465 nm) (https://lifesciences.tecan.com/software-magellan?p=tab--2).

membrane NEU-1 dimers = biological target: T3, membrane NEU-1 dimers (Homo sapiens, UniProt Q99519); experiment: NEU-1 dimerization in HepG2 cell membrane extracts (Western blot); assay type: biochemical; details: 0.1 μM, n = 4, mean ± SEM
T3 construct: HepG2 endogenously expresses IR and NEU-1; endogenous in cells; host or cells: HepG2 (ATCC HB-8065)
Description: HepG2 cells grown in 75 cm^2 flasks at 80% of confluence were washed twice with cold PBS and resuspended with 1 ml cold TEM buffer (75 mM Tris, 2 mM EDTA, 12 mM MgCl2, at pH 7,5) extemporaneously completed with 1% (v/v) protease inhibitor cocktail, 10 mM NaF, and 2 mM Na3VO4. After sonication, samples were centrifuged at 600g for 10 min at 4 °C to remove unlysed cells and nuclei. Supernatants were collected and centrifuged at 20,000g for 45 min at 4 °C. Crude membrane-containing pellets were then resuspended in TEM buffer supplemented with 1% (w/v) CHAPS {3-[(3-cholamidopropyl) dimethylammonio]-1-propanesulfonate} (Sigma-Aldrich). Cell membranes were then incubated with peptides at 0.1 μM and solubilized for 3 h at 4 °C under gentle end-over-end mixing. Supernatants were recovered after a centrifugation step (20,000g, 45 min, and 4 °C). These samples were then used for Western blot analyzes.
Protein samples were diluted in Laemmli buffer (500 mM Tris, 10% (w/v) SDS, 20% saccharose (w/v), 0.5% (w/v) bromophenol blue, 10% (v/v) β-mercaptoethanol, pH 6.8) and heated for 5 min at 100 °C. […]
Chemiluminescent protein detection was done by using ECL Prime Kit (GE Healthcare, Orsay, France). […] Quantification of bands intensity has been made using Image Studio Lite software (https://www.licor.com/bio/image-studio/).

membrane NEU-1 [5] = biological target: T2, membrane NEU-1; experiment: Membrane NEU-1 sialidase activity, COS-7^NEU-1 crude membranes (Muf-NANA); assay type: biochemical; parameters: host or cells: COS-7 (ATCC CRL-1651) or COS-7^IR, transient transfection, 72 h; details: COS-7^NEU-1 crude membrane, 0.1 μM, 15 min, compared to mutIntPep-RKR, n = 4-5, mean ± SEM
Excerpt: as §8

C57Bl/6J mice [6] = experiment: Biodistribution of fluorescent peptide in mice (fluorescence molecular tomography); assay type: in vivo, mouse; details: 100 μg/kg i.p. twice per week
Description: (§9) Experiments procedures were evaluated by research ethics committee of the University of Reims Champagne-Ardenne and approved by the French Ministry of Higher Education, Research and Innovation (APAFis #33891-2021111016547019). Five C57Bl/6J male and five female mice (Janvier Labs), aged 6 weeks, were maintained in a 12/12-h light/dark cycle and in a temperature and humidity-controlled environment. All mice had ad libitum access to a diet without chlorophyll (#U8959, SAFE diet) and water during the experimental period. Mice weight was measured twice per week throughout treatment. Weight gain or loss was then calculated and normalized to the weight measurement of the first week. The food intake was evaluated with weight feeders during the last week of treatment and every day. This weight was then divided by the number of mice in each cage.
(§10) Treatments have been started when mice were aged 8 weeks. Mice were under diet without chlorophyll (#U8959, SAFE diet) 2 weeks before the beginning of treatments to minimize the background noise of fluorescence measurements. LDS micelles or Cy5-IntPep-RKR were prepared as described previously and injected intraperitoneally at 100 μg/kg twice per week (100 μl).
Fluorescence measurements in entire body were realized in 13 mm cassette under isoflurane anesthesia (with PerkinElmer fluorescence molecular tomography 4000) at first, second, fifth, seventh, and eighth weeks of the treatment and 15 min after injection of fluorescent peptides. Organs were collected at the end of the treatment and placed on another cassette to measure their fluorescence with the same device. To remove the potential autofluorescence of certain organs, organ fluorescence of mice receiving LDS micelle injection (twice per week at 100 μg/kg) was measured and subtracted to those of mice receiving Cy5-IntPep-RKR. The measurement of organ fluorescence has been converted in ng of peptides per gram of organ and represented in % of peptides per organ. The software TrueQuant has been used for analyzes (https://www.perkinelmer.com.cn/lab-products-and-services/resources/in-vivo-imaging-software-downloads.html?_ga=2.29909951.1041849854.1637318373-1604795059.1637318373). The geometric size of the region of interest (ROI) background was between 40 and 41.5 mm^3, and one of the ROI was between 7900 and 8100 mm^3 in the entire body. The geometric size of the ROI background was the same in organ per organ biodistribution and one of the ROI for each organ approximatively as followed: the adipose tissue (1825 mm^3), the spleen (1095 mm^3), the stomach (2555 mm^3), the bladder (594 mm^3), the muscle (1142 mm^3), the liver (3379 mm^3), and the kidneys (1946 mm^3).

C57Bl/6J mice [7] = experiment: Glycemia measurement in mice; assay type: in vivo, mouse
Description: as §10
A slight incision at tail was made to collect a drop of blood (<10 μl). The nonfasted blood glucose was then measured under anesthesia for all groups with Contour Plus device and reactive strips before injection and 30 min after injection of LDS micelles or Cy5-IntPep-RKR at 100 μg/kg. Data were then normalized for each group by comparison with glycemia value before injection.

C57Bl/6J mice [8] = experiment: Systemic and cellular toxicity, plasma AST, CRP and LDH in mice; assay type: in vivo, mouse
Description: as §9, §10
Blood samples were collected before and after 8-weeks treatment, respectively, with LDS micelles or Cy5-IntPep-RKR by retroorbital and intracardiac pathway with sterile heparin Pasteur pipets and sterile needle in lithium heparin MiniCollect tubes (Greiner Bio-One). Animals were under isoflurane anesthesia during blood recovery. After centrifugation (3000 rpm, 10 min), plasma samples were then recovered in 1.5 ml eppendorfs and conserved at −20 °C. Finally, these samples were sent to the Institut Clinique de la Souris (Illkirch, France) to quantify several parameters as AST, CRP, and LDH. Graphics represent the percentages of observed variation between values obtained before and after 8-weeks treatment with LDS micelles or Cy5-IntPep-RKR.

C57Bl/6J mice [9] = experiment: Weight and food intake during 8 weeks of treatment in mice; assay type: in vivo, mouse; details: compared to LDS micelles
Description: as §9, §10

[10] = after 8 weeks, organ fluorescence, n = 10, mean ± SEM
[11] = 100 μg/kg i.p. twice per week for 8 weeks, versus LDS micelles group

FITC-LC- E312LVDPVVAAGAVVTSSGIVFFS333-RKR [FITC-IntPep-RKR, IntPeps coupled with FITC and solubilized in LDS micelles]
colocalization with NEU-1 [1]: colocalization areas at the plasma membrane

ELVDPVVAAGAVVTSSGIVFFSRKR [IntPep-RKR]
cell toxicity (cell viability, MTT) (HepG2 cells): do not induce cell toxicity | decrease of membrane NEU-1 sialidase activity (membrane NEU-1 [2]): 18.1% ± 2.9% | cell toxicity (cell viability, MTT) [3]: do not induce cell toxicity | decrease of membrane NEU-1 sialidase activity (membrane NEU-1 [4]): 32.6% ± 5.7% | decrease of the formation of NEU-1 dimers (membrane NEU-1 dimers; HepG2 cell membrane extracts, 3 h at 4 °C, compared to mutIntPep-RKR): 30.7% ± 5.6% | decrease of the ratio NEU-1 dimers/NEU-1 monomers (membrane NEU-1 dimers; HepG2 cell membranes, normalized to mutIntPep-RKR condition): 42.4% ± 7.3% | decrease of membrane NEU-1 sialidase activity (membrane NEU-1 [5]): 35.3% ± 7.6%

H-C(Cy5)-E312LVDPVVAAGAVVTSSGIVFFSRKR333-NH2 [Cy5-IntPep-RKR, IntPeps coupled with cyanine-5, injected in LDS micelles]
whole body fluorescence distribution (C57Bl/6J mice [6]; 15 min after injection, weeks 1,2,5,7 and 8): well distributed in the whole organism | % of peptides per organ, white adipose tissue (C57Bl/6J mice [6]; after 8 weeks, organ fluorescence minus autofluorescence, n = 10, mean ± SEM): 29.2% ± 9% | % of peptides per organ, bladder (C57Bl/6J mice [6]; [10]): 18.52% ± 5.7% | % of peptides per organ, kidneys (C57Bl/6J mice [6]; [10]): 5.33% ± 2.1% | % of peptides per organ, liver (C57Bl/6J mice [6]; [10]): 6.13% ± 2.5% | % of peptides per organ, muscle (C57Bl/6J mice [6]; [10]): 17 ± 4.25% | % of peptides per organ, spleen (C57Bl/6J mice [6]; [10]): 17.05% ± 3.7% | increase of blood glucose after peptide injection (C57Bl/6J mice [7]; C57Bl/6J mice without fasting, isoflurane anesthesia, 30 min after i.p. injection at 100 μg/kg, compared to before injection, n = 10, mean ± SEM): about 44.5% ± 10.4% | blood glucose level, mice fasted for 4 h or fed (C57Bl/6J mice [7]; C57Bl/6J mice, 8 weeks of treatment at 100 μg/kg twice per week, versus LDS micelles group, n = 10 per group): no difference of blood glucose level | plasma aspartate transaminase (AST) activity (C57Bl/6J mice [8]; [11]): No significant difference | plasma expression level of C-reactive protein (CRP) (C57Bl/6J mice [8]; [11]): No significant difference | plasma lactate dehydrogenase (LDH) activity (C57Bl/6J mice [8]; [11]): No significant difference | decrease of CRP level (C57Bl/6J mice [8]; 100 μg/kg i.p. twice per week, comparing data before and after 8-week treatment, mean ± SEM): 21.11% ± 3.1% | toxicity and inflammation (C57Bl/6J mice [8]; 8-week treatment, two injections per week at 100 μg/kg): did not induce toxicity and inflammation | weight (C57Bl/6J mice [9]; 100 μg/kg i.p. twice per week, 8 weeks, n = 10 per group): do not induce modification of weight | food intake (C57Bl/6J mice [9]; last week of 8-week treatment, n = 6): do not impair the food intake

ELVDPVVVAIAVVTSSIIAFFSRKR [mutIntPep-RKR]
cell toxicity (cell viability, MTT) (HepG2 cells): do not induce cell toxicity | cell toxicity (cell viability, MTT) [3]: do not induce cell toxicity
